In US20230043428A1, “COMPOSITIONS AND METHODS FOR USE OF CANNABINOIDS FOR NEUROPROTECTION” (INMED PHARMACEUTICALS INC., priority 2019, published 2023):
Values joined by “and” are separate entries in the source; they are usually repeats but may differ in a detail not shown here. Equal entries are not always repeated. “Also recorded” adds a separate entry of the source.

How the values were obtained:
[1] = system: rat episcleral vein laser photocoagulation model of glaucoma (RGC function); assay: pattern electroretinogram (pERG) in the rat episcleral vein laser photocoagulation model of glaucoma; assay type: in vivo; details: for pERG amplitudes vs baseline (statistical significance): two-way ANOVA, Tukey
Description: The pattern electroretinogram (pERG) amplitude a parameter that measures retinal ganglion cell (RGC) activity was evaluated on the eyes of anesthetized animals. During the pERG recording, the eyes were kept moist with a drop of 2.5% GonioVisc ophthalmic lubricant solution (Hub Pharmaceuticals), which also secured electrical contact between the corneas and ERG electrodes. The ERG electrodes were thin silver/silver-chloride wire rings. One eye was recorded while another eye was mechanically occluded. The occluded eye served as a reference in the ERG recording providing minimal physiological noise, while the ground electrode was placed on the tail. Only the signals from the right eye (OD) were recorded. The pERG stimulus was generated with a gamma-linearized monitor screen yielding vertical sinusoidal pattern of 0.10 cycles per degree of visual angle at viewing distance. The mean luminance of stimulation was 45 lux and contrast between dark and white was 99%. […] Two recordings were performed for each eye. For the pERG analysis, the pERG waveforms were superimposed, checked for consistency and averaged as final pERG response. Baseline pERG responses were recorded at day 0 four days prior to the lasering, and on days 7, 14 and day 21 post-lasering. Initially pERG baseline amplitudes were recorded on the eyes of all animals at baseline. The animals were then randomized into control and treatments groups based on their pERG response.
The following treatment arms were used in the study: • Group 1: Vehicle (0.5% DMSO-PBS) (IVT, day 0, day 7 and day 15) n=11 • Group 2: CBN low dose, 5 μM in 0.05% DMSO-PBS (IVT, day 0, day 7 and day 15) n=13 • Group 3: CBN high dose 50 μM in 0.5% DMSO-PBS (IVT, day 0, day 7 and day 15) n=11 • Group 4: Brimonidine (topical, twice daily at 5 μl per eye, day −3 to day 21) n=14

[2] = system: differentiated 661W cells; assay: MTT assay, cannabinoid cytotoxicity on differentiated 661W cells under atmospheric pressure; assay type: cell-based, mouse; details: 72 hours
Description: (§1) Cell Culture and Differentiation: The mouse 661W (RGC-5) cell line was maintained in DMEM cell culture medium supplemented with 10% FBS and 1% Antibiotic-Antimycotic penicillin/streptomycin (growth medium) at 37° C. in a humidified atmosphere of 5% CO2. To induce neuronal differentiation in 661W cells, culture media was replaced by a growth medium containing 321 nM Staurosporine (STSR), and cells were incubated for 24 hrs at 37° C. in a humidified atmosphere of 5% CO2.
(§2) Compounds and Dosing Formulations: Selected cannabinoids: CBN, CBD, CBGA, CBDA, CBND and Δ^9-THC were procured from Cayman and Toronto Research Chemicals. Ethanol was used as the solvent to prepare 1 and 10 mM stock solutions. Treatment concentrations for CBN were prepared at 0.015, 0.05, 0.15, 0.5, 1.5, 5, 10 and 15 μM. Treatment concentrations at 0.5, 1.5 and 5 μM for other cannabinoids were prepared directly in the control medium (DMEM+5% FBS+1% Antibiotic-Antimycotic) by using appropriate stock solution.
(§3) Evaluation of Cytotoxicity and Neuroprotection: Evaluation of cannabinoid cytotoxicity on differentiated 661W cells under atmospheric pressure was carried out using MTT (3-(4,5-dimethylthiazol-2-yl)-2,5-diphenyltetrazolium bromide) assay. The cells were seeded onto 96-well plates (4,000 cells/well) in DMEM complete medium and allowed to reach ˜70% confluence for 24 hrs. After 24 hours, cell culture medium was replaced by growth medium containing 321 nM Staurosporine (STSR) and incubated for 1 day to induce differentiation into a neuronal phenotype.
(§4) MTT Assay: For the MTT assay, differentiated 661W cells were treated with cannabinoids at various concentrations and processed to determine cytotoxicity. Briefly, 5 mg/mL of methylthiazolyldiphenyl-tetrazolium bromide (Sigma-Aldrich) stock solution was prepared in PBS. Following treatment of cannabinoids for 72 hours, 661W cells were incubated with 20 μL of MTT stock solution in 200 μL DMEM for 2 hours at 37° C. Following subsequent washes with PBS, 200 μL of isopropanol was added to each well, and the resulting change in color from dissolving formazan salt was immediately quantified using spectrophotometer (BMG Labtech) at a wavelength of 570 nm. The data was normalized to Vehicle Control (VC) containing 0.15% ethanol and presented as % Cell Death. The VC (%) at atmospheric pressure was considered as 0% cell death. The results are illustrated in FIG. 1.

[3] = system: differentiated 661W cells; assay: MTT assay, differentiated 661W cells in pressurized chamber at elevated hydrostatic pressure (approximately 20 to 40 mm Hg); assay type: cell-based, mouse; details: for neuroprotection (Cell Death % vs Normal Pressure Vehicle Control): elevated hydrostatic pressure approximately 20 to 40 mm Hg, 72 hours
Description: as §1, §2, §3, §4
Except where indicated all procedures were performed as described in Example 1. Differentiated 661W cells treated with cannabinoids at the respective concentrations were placed in a pressurized chamber where an elevated hydrostatic pressure of […] was maintained for 72 hrs. At the end of incubation, 661W cells were processed for MTT assay to determine cytotoxicity. The results are illustrated in FIGS. 2-5.

[4] = system: differentiated 661W cells; assay: MTT assay, CBNA on differentiated 661W cells at elevated hydrostatic pressure (~10-25 mmHg); assay type: cell-based, mouse; details: elevated hydrostatic pressure approximately 10 to 25 mmHg; 0.015 to 15 μM; 72 hours
Description: as §4
In a separate study cannabinol-derivative CBNA at 0.015, 0.05, 0.15, 0.5, 1.5, 5, 10, and 15 μM concentrations was placed on differentiated 661W cells in a pressurized chamber where an elevated hydrostatic pressure of ˜10-25 mmHg was maintained for 72 hrs. At the end of incubation, 661W cells were processed for MTT assay to determine cytotoxicity. The results are illustrated in FIG. 6.

[5] = Brimonidine topical, twice daily at 5 μl per eye
[6] = Brimonidine topical, twice daily
[7] = CBN high dose, 50 μM, IVT day 0, 7 and 15
[8] = CBN low dose, 5 μM, IVT day 0, 7 and 15

For `Brc1c(NC2=NCCN2)ccc2nccnc12` [Alphagan, Brimonidine], the “pERG amplitudes vs baseline (statistical significance)” value ([1]; Brimonidine (ALPHAGAN) topical twice daily, follow-up days 14 and 21) was “did not differ significantly from the baseline”, the “pERG amplitude (mean ± SEM), BASELINE” value ([1]; Brimonidine topical, twice daily at 5 μl per eye, day −3 to day 21, baseline) was 3.6 ± 0.4 μV and the “pERG amplitude (mean ± SEM), DAY 7” value [1, 5] was 3.9 ± 0.6 μV. For the same compound, the “pERG amplitude (mean ± SEM), DAY 14” value [1, 5] was 2.8 ± 0.4 μV, the “pERG amplitude (mean ± SEM), DAY 21” value [1, 5] was 2.4 ± 0.3 μV and the “pERG amplitude reduction compared to baseline value, Day 7” value (shortened to “pERG amplitude reduction … Day 7”) [1, 6] was 9.6%. The “pERG amplitude reduction compared to baseline value, Day 14” value (from here on “pERG amplitude reduction … Day 14”) [1, 6] was −22.8% and the “pERG amplitude reduction compared to baseline value, Day 21” value (from here on “pERG amplitude reduction … Day 21”) [1, 6] was −31.6%.

In the case of `CCCCCc1cc(O)c2c(c1)OC(C)(CCC=C(C)C)C=C2` (stereo not drawn) [CBC, cannabichromene], the “toxicity when in contact with neurons” value ([2]; concentration of about 1.5 μM) is reported as “high toxicity” and the “toxicity when in contact with neurons” value ([2]; concentration of about 5 μM) is reported as “high toxicity”.

With `C=C(C)[C@@H]1CCC(C)=C[C@H]1c1c(O)cc(CCCCC)c(C(=O)O)c1O` [CBDA, cannabidiolic acid] the “neuroprotection (Cell Death % vs Normal Pressure Vehicle Control)” value ([3]; 0.5 μM, 1.5 μM and 5 μM) was “absence of significant neuroprotection” and the “toxicity when in contact with neurons” value ([2]; concentration of about 5 μM) was “high toxicity”.

For `C=C(C)[C@@H]1CCC(C)=C[C@H]1c1c(O)cc(CCCCC)cc1O` [CBD], the “neuroprotection (Cell Death % vs Normal Pressure Vehicle Control)” value ([3]; 0.5 μM, 1.5 μM and 5 μM) was “absence of significant neuroprotection”, the “toxicity when in contact with neurons” value ([2]; concentration of about 0.5 μM) was “high toxicity” and the “toxicity when in contact with neurons” value ([2]; concentration of about 1.5 μM) was “high toxicity”. The “toxicity when in contact with neurons” value ([2]; concentration of about 5 μM) was “high toxicity”.

In the case of `CCCCCc1cc(O)c(C/C=C(\C)CCC=C(C)C)c(O)c1` [CBG, cannabigerol], the “toxicity when in contact with neurons” value ([2]; concentration of about 0.5 μM) is reported as “high toxicity”, the “toxicity when in contact with neurons” value ([2]; concentration of about 1.5 μM) is reported as “high toxicity” and the “toxicity when in contact with neurons” value ([2]; concentration of about 5 μM) is reported as “high toxicity”.

For `CCCCCc1cc(O)c(C/C=C(\C)CCC=C(C)C)c(O)c1C(=O)O` [CBGA], the “neuroprotection (Cell Death % vs Normal Pressure Vehicle Control)” value ([3]; 0.5 μM, 1.5 μM and 5 μM) was “absence of significant neuroprotection”, the “toxicity when in contact with neurons” value ([2]; concentration of about 0.5 μM) was “high toxicity” and the “toxicity when in contact with neurons” value ([2]; concentration of about 1.5 μM) was “high toxicity”. The “toxicity when in contact with neurons” value ([2]; concentration of about 5 μM) was “high toxicity”.

In the case of `CCCCCc1cc(O)c2c(c1)OC(C)(C)c1ccc(C)cc1-2` [CBN, 6,6,9-trimethyl-3-pentylbenzo[c]chromen-1-ol], the “pERG amplitudes vs baseline (statistical significance)” value ([1]; CBN high dose, 50 μM IVT, days 14 and 21) is reported as “statistically significant difference in disease induction; also recorded: Statistically significant impairment of RGC function”, the “pERG amplitude (mean ± SEM), BASELINE” value ([1]; CBN high dose, 50 μM, IVT day 0, 7 and 15, baseline (before lasering)) is reported as 3.83 μV and 3.8 ± 0.4 μV and the “pERG amplitude (mean ± SEM), DAY 7” value [1, 7] is reported as 3.6 ± 0.6 μV. For the same compound, the “pERG amplitude (mean ± SEM), DAY 14” value [1, 7] was 1.87 μV and 1.9 ± 0.3 μV, the “pERG amplitude (mean ± SEM), DAY 21” value [1, 7] was 2.19 μV and 2.2 ± 0.4 μV and the “pERG amplitude reduction … Day 7” value ([1]; CBN high dose, 50 μM, IVT) was −6.4%. For the same compound, the “pERG amplitude reduction … Day 14” value ([1]; CBN high dose, 50 μM, IVT, **p<0.01 vs baseline) was −51.2** %, the “pERG amplitude reduction … Day 21” value ([1]; CBN high dose, 50 μM, IVT, *p<0.05 vs baseline) was −42.9* % and the “neuroprotective effect on RGCs” value ([1]; CBN low dose of 5 μM final concentration inside the eye) was “confers neuroprotective effect on RGCs similar to ALPHAGAN”. For the same compound, the “pERG amplitudes vs baseline (statistical significance)” value ([1]; CBN low dose, 5 μM final concentration inside the eye, follow-up days 14 and 21) was “did not differ significantly from the baseline”, the “pERG amplitude (mean ± SEM), BASELINE” value ([1]; CBN low dose, 5 μM, IVT day 0, 7 and 15, baseline (before lasering)) was 3.3 ± 0.3 μV and the “pERG amplitude (mean ± SEM), DAY 7” value [1, 8] was 3.2 ± 0.5 μV. The “pERG amplitude (mean ± SEM), DAY 14” value [1, 8] was 2.3 ± 0.2 μV, the “pERG amplitude (mean ± SEM), DAY 21” value [1, 8] was 2.2 ± 0.3 μV and the “pERG amplitude reduction … Day 7” value ([1]; CBN low dose, 5 μM, IVT) was −3.7%. The “pERG amplitude reduction … Day 14” value ([1]; CBN low dose, 5 μM, IVT) was −31.2%, the “pERG amplitude reduction … Day 21” value ([1]; CBN low dose, 5 μM, IVT) was −31.6% and the “neuroprotection (Cell Death % vs Normal Pressure Vehicle Control)” value ([3]; CBN 0.015 to 15 μM, One-Way ANOVA vs VC) was “statistically significant neuroprotection; also recorded: significant neuroprotective effect”. For the same compound, the “neuroprotective effect compared with CBD and Δ^9-THC” value ([3]; elevated pressure conditions in the pressurized chamber, same conditions) was “surprisingly superior”.

With `CCCCCc1cc2c(c(O)c1C(=O)O)-c1cc(C)ccc1C(C)(C)O2` [CBNA, cannabinolic acid] the “neuroprotection (Cell Death % vs Vehicle Control)” value [4] was “statistically significant neuroprotection”.

For `C=C(C)c1ccc(C)cc1-c1c(O)cc(CCCCC)cc1O` [CBND], the “neuroprotection (Cell Death % vs Normal Pressure Vehicle Control)” value ([3]; 0.5 μM, 1.5 μM and 5 μM) was “absence of significant neuroprotection”, the “toxicity when in contact with neurons” value ([2]; concentration of about 1.5 μM) was “high toxicity” and the “toxicity when in contact with neurons” value ([2]; concentration of about 5 μM) was “high toxicity”.

For `CCCCCc1cc(O)c2c(c1)OC(C)(C)[C@@H]1CCC(C)=C[C@@H]21` [Δ^9-THC, Δ^9-tetrahydrocannabinol], the “neuroprotection (Cell Death % vs Normal Pressure Vehicle Control)” value ([3]; 0.5 μM, 1.5 μM and 5 μM) was “absence of significant neuroprotection” and the “toxicity when in contact with neurons” value ([2]; concentration of about 5 μM) was “high toxicity”.
